Data: ChEMBL document CHEMBL4507295 (2021)

Columns and labels:
[1] = biological target: Muscle, skeletal receptor tyrosine-protein kinase (Homo sapiens) (UniProt O15146); conditions: Compound concentration 1000.0 nM
[2] = tested on: Receptor-type tyrosine-protein kinase FLT3 (Homo sapiens), P36888 [UNDEFINED MUTATION]; conditions: Compound concentration 1000.0 nM
[3] = biological target: Beta-adrenergic receptor kinase 1 (Homo sapiens) (UniProt P25098); conditions: Compound concentration 1000.0 nM
[4] = biological target: Ephrin type-B receptor 1 (Homo sapiens) (UniProt P54762); conditions: Compound concentration 1000.0 nM
[5] = biological target: RAF proto-oncogene serine/threonine-protein kinase (Homo sapiens) (UniProt P04049); conditions: Compound concentration 1000.0 nM
[6] = biological target: cGMP-dependent protein kinase 2 (Homo sapiens) (UniProt Q13237); conditions: Compound concentration 1000.0 nM
[7] = biological target: Serine/threonine-protein kinase Sgk2 (Homo sapiens) (UniProt Q9HBY8); conditions: Compound concentration 1000.0 nM
[8] = biological target: SNF-related serine/threonine-protein kinase (Homo sapiens) (UniProt Q9NRH2); conditions: Compound concentration 1000.0 nM
[9] = tested on: Tyrosine-protein kinase ABL1 (Homo sapiens), P00519 [F317L]; conditions: Compound concentration 1000.0 nM
[10] = biological target: Atypical kinase COQ8B, mitochondrial (Homo sapiens) (UniProt Q96D53); conditions: Compound concentration 1000.0 nM
[11] = biological target: High affinity nerve growth factor receptor (Homo sapiens) (UniProt P04629); conditions: Compound concentration 1000.0 nM
[12] = biological target: Sodium-dependent noradrenaline transporter (Homo sapiens) (UniProt P23975); conditions: Compound concentration 10.0 uM
[13] = biological target: RAC-alpha serine/threonine-protein kinase (Homo sapiens) (UniProt P31749); conditions: Compound concentration 1000.0 nM
[14] = biological target: Mu-type opioid receptor (Homo sapiens) (UniProt P35372); conditions: Compound concentration 10.0 uM
[15] = biological target: Macrophage colony-stimulating factor 1 receptor (Homo sapiens) (UniProt P07333); conditions: Compound concentration 1000.0 nM
[16] = tested on: Proto-oncogene tyrosine-protein kinase receptor Ret (Homo sapiens), P07949 [M918T]; conditions: Compound concentration 1000.0 nM
[17] = biological target: Misshapen-like kinase 1 (Homo sapiens) (UniProt Q8N4C8); conditions: Compound concentration 1000.0 nM
[18] = biological target: SRSF protein kinase 1 (Homo sapiens) (UniProt Q96SB4); conditions: Compound concentration 1000.0 nM
[19] = tested on: Phosphatidylinositol 4,5-bisphosphate 3-kinase catalytic subunit alpha isoform (Homo sapiens), P42336 [I800L]; conditions: Compound concentration 1000.0 nM
[20] = tested on: Epidermal growth factor receptor (Homo sapiens), P00533 [UNDEFINED MUTATION]; conditions: Compound concentration 1000.0 nM
[21] = biological target: Serine/threonine-protein kinase Nek9 (Homo sapiens) (UniProt Q8TD19); conditions: Compound concentration 1000.0 nM
[22] = biological target: Vascular endothelial growth factor receptor 2 (Homo sapiens) (UniProt P35968); conditions: Compound concentration 1000.0 nM
[23] = biological target: Proto-oncogene tyrosine-protein kinase ROS (Homo sapiens) (UniProt P08922); conditions: Compound concentration 1000.0 nM
[24] = biological target: Serine/threonine-protein kinase PAK 6 (Homo sapiens) (UniProt Q9NQU5); conditions: Compound concentration 1000.0 nM
[25] = biological target: G protein-coupled receptor kinase 4 (Homo sapiens) (UniProt P32298); conditions: Compound concentration 1000.0 nM
[26] = tested on: Epidermal growth factor receptor (Homo sapiens), P00533 [UNDEFINED MUTATION]; conditions: Compound concentration 1000.0 nM; remark: listed apart in the source
[27] = biological target: Serine/threonine-protein kinase PRP4 homolog (Homo sapiens) (UniProt Q13523); conditions: Compound concentration 1000.0 nM
[28] = tested on: Tyrosine-protein kinase ABL1 (Homo sapiens), P00519 [T315I]; conditions: Compound concentration 1000.0 nM
[29] = biological target: Receptor tyrosine-protein kinase erbB-4 (Homo sapiens) (UniProt Q15303); conditions: Compound concentration 1000.0 nM
[30] = biological target: Mitogen-activated protein kinase kinase kinase 9 (Homo sapiens) (UniProt P80192); conditions: Compound concentration 1000.0 nM
[31] = biological target: Mitogen-activated protein kinase 11 (Homo sapiens) (UniProt Q15759); conditions: Compound concentration 1000.0 nM
[32] = biological target: Aurora kinase B (Homo sapiens) (UniProt Q96GD4); conditions: Compound concentration 1000.0 nM
[33] = tested on: Tyrosine-protein kinase ABL1 (Homo sapiens), P00519 [F317L]; conditions: Compound concentration 1000.0 nM; remark: listed apart in the source
[34] = biological target: Mitogen-activated protein kinase kinase kinase 11 (Homo sapiens) (UniProt Q16584); conditions: Compound concentration 1000.0 nM
[35] = tested on: Phosphatidylinositol 4,5-bisphosphate 3-kinase catalytic subunit alpha isoform (Homo sapiens), P42336 [H1047L]; conditions: Compound concentration 1000.0 nM
[36] = biological target: Epidermal growth factor receptor (Homo sapiens) (UniProt P00533); conditions: Compound concentration 1000.0 nM
[37] = biological target: Phosphatidylinositol 4,5-bisphosphate 3-kinase catalytic subunit delta isoform (Homo sapiens) (UniProt O00329); conditions: Compound concentration 1000.0 nM
[38] = biological target: Receptor-interacting serine/threonine-protein kinase 4 (Homo sapiens) (UniProt P57078); conditions: Compound concentration 1000.0 nM
[39] = biological target: Rhodopsin kinase GRK1 (Homo sapiens) (UniProt Q15835); conditions: Compound concentration 1000.0 nM
[40] = biological target: Mitogen-activated protein kinase 3 (Homo sapiens) (UniProt P27361); conditions: Compound concentration 1000.0 nM
[41] = biological target: Myosin light chain kinase (Homo sapiens) (UniProt Q32MK0); conditions: Compound concentration 1000.0 nM
[42] = biological target: Insulin receptor (Homo sapiens) (UniProt P06213); conditions: Compound concentration 1000.0 nM
[43] = biological target: Serine/threonine-protein kinase BRSK2 (Homo sapiens) (UniProt Q8IWQ3); conditions: Compound concentration 1000.0 nM
[44] = biological target: Mitogen-activated protein kinase kinase kinase kinase 1 (Homo sapiens) (UniProt Q92918); conditions: Compound concentration 1000.0 nM
[45] = biological target: Wee1-like protein kinase 2 (Homo sapiens) (UniProt P0C1S8); conditions: Compound concentration 1000.0 nM

Epidermal growth factor receptor (Homo sapiens), P00533 [UNDEFINED MUTATION], sequence (P00533 whole entry, looked up, change not shown): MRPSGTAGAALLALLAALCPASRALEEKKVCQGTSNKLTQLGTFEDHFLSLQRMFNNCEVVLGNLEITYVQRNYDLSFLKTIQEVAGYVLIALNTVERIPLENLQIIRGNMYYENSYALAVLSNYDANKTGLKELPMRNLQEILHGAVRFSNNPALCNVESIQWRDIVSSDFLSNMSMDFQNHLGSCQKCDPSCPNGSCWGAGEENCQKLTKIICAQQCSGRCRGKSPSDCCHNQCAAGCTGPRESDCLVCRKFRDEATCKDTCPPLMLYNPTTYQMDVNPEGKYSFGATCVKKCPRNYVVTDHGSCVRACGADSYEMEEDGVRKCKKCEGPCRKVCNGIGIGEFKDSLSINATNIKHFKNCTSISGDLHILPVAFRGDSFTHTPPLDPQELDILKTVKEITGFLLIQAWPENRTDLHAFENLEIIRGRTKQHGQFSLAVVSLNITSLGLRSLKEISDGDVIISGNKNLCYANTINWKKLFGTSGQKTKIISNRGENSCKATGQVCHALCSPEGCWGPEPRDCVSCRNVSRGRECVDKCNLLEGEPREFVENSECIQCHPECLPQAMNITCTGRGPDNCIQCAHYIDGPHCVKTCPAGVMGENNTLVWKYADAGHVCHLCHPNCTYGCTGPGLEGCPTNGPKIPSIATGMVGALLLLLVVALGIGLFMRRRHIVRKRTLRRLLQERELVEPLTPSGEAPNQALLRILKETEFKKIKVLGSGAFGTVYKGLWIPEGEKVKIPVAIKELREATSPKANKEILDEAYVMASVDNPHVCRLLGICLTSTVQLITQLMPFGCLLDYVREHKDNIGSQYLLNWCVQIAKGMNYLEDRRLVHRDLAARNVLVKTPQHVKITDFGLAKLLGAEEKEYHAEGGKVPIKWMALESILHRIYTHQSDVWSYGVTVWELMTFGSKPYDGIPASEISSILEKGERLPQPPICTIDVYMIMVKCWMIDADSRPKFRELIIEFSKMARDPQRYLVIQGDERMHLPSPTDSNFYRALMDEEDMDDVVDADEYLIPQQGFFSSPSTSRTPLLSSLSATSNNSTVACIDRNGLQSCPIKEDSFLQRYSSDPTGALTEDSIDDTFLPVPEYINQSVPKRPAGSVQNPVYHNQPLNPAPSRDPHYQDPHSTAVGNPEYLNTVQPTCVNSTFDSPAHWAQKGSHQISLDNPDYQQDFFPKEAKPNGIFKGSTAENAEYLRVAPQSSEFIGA
G protein-coupled receptor kinase 4 (Homo sapiens), sequence (P32298 whole entry, looked up): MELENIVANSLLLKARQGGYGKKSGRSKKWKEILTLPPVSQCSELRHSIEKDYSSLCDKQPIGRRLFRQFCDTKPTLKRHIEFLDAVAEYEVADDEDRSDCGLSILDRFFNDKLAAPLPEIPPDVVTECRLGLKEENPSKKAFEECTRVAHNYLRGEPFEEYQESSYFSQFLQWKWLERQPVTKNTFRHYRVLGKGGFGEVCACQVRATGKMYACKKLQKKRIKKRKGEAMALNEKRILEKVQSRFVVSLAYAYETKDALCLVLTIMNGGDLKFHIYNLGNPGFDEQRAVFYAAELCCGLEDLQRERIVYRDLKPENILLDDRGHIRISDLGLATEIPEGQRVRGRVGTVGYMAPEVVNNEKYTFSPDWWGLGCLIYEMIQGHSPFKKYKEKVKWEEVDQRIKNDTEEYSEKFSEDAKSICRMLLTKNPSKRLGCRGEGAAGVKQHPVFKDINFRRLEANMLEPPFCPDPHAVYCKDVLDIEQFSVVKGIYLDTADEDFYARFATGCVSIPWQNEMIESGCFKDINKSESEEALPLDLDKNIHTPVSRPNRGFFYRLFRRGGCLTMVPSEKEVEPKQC
RAC-alpha serine/threonine-protein kinase (Homo sapiens), sequence (P31749 whole entry): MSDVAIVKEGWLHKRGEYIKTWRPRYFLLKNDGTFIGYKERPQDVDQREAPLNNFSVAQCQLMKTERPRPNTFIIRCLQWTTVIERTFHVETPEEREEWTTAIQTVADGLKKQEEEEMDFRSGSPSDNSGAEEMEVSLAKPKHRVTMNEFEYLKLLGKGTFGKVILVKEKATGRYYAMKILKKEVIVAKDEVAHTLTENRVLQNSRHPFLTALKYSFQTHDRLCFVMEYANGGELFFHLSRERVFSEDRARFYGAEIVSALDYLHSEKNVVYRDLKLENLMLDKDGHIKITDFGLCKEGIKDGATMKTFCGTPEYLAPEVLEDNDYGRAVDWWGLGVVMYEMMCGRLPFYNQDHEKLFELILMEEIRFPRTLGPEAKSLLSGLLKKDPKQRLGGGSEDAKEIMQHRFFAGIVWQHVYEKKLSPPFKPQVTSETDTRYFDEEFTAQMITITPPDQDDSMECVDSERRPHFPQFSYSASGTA
Serine/threonine-protein kinase Sgk2 (Homo sapiens), sequence (Q9HBY8 whole entry): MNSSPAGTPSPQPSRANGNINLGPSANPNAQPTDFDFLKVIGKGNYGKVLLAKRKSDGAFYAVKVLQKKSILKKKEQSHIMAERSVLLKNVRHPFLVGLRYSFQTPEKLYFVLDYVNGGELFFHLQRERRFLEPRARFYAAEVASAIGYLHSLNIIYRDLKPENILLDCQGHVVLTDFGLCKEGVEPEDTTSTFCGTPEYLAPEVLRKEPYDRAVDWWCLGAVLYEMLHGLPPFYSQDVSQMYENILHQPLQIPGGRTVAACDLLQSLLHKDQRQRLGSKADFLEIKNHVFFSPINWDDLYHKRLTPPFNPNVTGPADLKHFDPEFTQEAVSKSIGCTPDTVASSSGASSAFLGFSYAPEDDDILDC
Rhodopsin kinase GRK1 (Homo sapiens), sequence (Q15835 whole entry): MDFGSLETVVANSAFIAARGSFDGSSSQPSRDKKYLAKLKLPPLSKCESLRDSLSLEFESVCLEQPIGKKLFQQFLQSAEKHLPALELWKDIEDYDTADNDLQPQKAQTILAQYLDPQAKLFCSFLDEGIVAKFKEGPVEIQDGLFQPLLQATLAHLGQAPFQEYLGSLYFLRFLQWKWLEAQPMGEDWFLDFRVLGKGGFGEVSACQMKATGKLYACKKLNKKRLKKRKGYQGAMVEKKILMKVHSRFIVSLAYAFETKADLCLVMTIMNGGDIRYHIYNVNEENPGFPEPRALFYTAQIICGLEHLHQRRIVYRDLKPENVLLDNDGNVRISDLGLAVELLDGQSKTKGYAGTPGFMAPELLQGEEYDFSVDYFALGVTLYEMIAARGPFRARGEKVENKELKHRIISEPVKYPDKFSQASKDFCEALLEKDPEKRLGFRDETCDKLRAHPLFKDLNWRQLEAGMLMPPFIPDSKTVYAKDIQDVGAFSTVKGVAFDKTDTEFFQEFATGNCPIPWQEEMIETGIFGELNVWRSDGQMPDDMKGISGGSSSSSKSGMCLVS
RAF proto-oncogene serine/threonine-protein kinase (Homo sapiens), sequence (P04049 whole entry): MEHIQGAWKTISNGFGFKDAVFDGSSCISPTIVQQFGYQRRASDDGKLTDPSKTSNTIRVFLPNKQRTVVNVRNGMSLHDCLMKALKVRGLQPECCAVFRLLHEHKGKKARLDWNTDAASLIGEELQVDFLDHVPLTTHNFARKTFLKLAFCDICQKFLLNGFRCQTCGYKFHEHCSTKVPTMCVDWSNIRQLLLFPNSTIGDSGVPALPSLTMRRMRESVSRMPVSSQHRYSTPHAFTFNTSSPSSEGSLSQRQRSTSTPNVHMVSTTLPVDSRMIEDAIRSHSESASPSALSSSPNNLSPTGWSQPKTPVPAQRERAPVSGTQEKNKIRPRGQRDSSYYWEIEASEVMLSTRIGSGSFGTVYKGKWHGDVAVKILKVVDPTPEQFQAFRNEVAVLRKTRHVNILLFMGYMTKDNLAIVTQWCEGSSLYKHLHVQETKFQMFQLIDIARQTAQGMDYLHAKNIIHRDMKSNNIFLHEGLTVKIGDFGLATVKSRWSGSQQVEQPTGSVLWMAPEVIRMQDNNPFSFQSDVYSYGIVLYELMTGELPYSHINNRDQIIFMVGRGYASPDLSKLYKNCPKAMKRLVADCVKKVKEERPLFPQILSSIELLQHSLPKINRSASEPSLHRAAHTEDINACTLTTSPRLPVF
cGMP-dependent protein kinase 2 (Homo sapiens), sequence (Q13237 whole entry): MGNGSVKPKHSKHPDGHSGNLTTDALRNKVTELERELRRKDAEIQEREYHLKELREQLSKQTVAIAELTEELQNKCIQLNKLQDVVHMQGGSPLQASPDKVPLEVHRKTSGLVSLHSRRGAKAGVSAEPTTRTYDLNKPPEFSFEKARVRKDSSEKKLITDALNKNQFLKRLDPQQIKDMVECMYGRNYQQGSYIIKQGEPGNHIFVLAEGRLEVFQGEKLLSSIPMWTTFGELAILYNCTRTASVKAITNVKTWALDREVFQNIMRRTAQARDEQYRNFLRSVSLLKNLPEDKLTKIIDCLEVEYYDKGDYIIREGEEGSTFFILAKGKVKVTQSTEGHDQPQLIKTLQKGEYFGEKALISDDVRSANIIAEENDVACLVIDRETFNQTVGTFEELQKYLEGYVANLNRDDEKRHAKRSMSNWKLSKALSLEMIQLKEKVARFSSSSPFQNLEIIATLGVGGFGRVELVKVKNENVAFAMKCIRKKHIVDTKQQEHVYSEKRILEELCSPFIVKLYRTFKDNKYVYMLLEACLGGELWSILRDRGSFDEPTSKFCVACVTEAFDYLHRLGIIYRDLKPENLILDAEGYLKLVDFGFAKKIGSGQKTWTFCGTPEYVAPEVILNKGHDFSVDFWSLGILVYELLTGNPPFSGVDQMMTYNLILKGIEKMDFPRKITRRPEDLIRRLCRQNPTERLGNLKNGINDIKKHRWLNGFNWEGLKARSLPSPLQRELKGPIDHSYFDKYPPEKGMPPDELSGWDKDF
Mitogen-activated protein kinase 3 (Homo sapiens), sequence (P27361 whole entry): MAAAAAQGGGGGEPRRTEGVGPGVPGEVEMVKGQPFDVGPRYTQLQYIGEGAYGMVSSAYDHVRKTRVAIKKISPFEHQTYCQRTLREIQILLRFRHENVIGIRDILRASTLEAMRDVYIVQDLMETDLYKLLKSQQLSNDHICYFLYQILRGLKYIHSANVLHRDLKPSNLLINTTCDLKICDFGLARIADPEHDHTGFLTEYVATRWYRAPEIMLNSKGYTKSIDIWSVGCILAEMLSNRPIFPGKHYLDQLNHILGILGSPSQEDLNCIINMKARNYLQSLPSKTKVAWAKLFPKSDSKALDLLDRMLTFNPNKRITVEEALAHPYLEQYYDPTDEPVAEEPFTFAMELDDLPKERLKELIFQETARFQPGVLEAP

N#CC1(c2ccccn2)CCN(Cc2cc(C(=O)N3CCCC3)c(=O)n3ccccc23)CC1
inactive: residual activity [1] 90% | residual activity [2] 100% | residual activity [3] 82% | residual activity [4] 91% | residual activity [5] 100% | residual activity [6] 100% | residual activity [7] 100% | residual activity [8] 91% | residual activity [9] 100% | residual activity [10] 100% | residual activity [11] 100% | inhibition [12] 40.5% | residual activity [13] 91% | inhibition [14] 35% | residual activity [15] 86% | residual activity [16] 88% | residual activity [17] 89% | residual activity [18] 85% | residual activity [19] 72% | residual activity [20] 81% | residual activity [21] 99% | residual activity [22] 92% | residual activity [23] 97% | residual activity [24] 100% | residual activity [25] 86% | residual activity [26] 67% | residual activity [27] 78% | residual activity [28] 83% | residual activity [29] 85% | residual activity [30] 72% | residual activity [31] 76% | residual activity [32] 92% | residual activity [33] 92% | residual activity [34] 89% | residual activity [35] 100% | residual activity [36] 100% | residual activity [37] 61% | residual activity [38] 100% | residual activity [39] 85% | residual activity [40] 91% | residual activity [41] 76% | residual activity [42] 88% | residual activity [43] 77% | residual activity [44] 100% | residual activity [45] 91%

N#CC1(c2ccccn2)CCN(Cc2cc(C(=O)O)c(=O)n3ccccc23)CC1 [MSD-M1PAM]
inactive: residual activity [1] 96% | residual activity [2] 92% | residual activity [3] 93% | residual activity [4] 100% | residual activity [5] 100% | residual activity [6] 95% | residual activity [7] 86% | residual activity [8] 76% | residual activity [9] 84% | residual activity [10] 90% | residual activity [11] 88% | inhibition [12] 24.7% | residual activity [13] 100% | inhibition [14] 18.5% | residual activity [15] 100% | residual activity [16] 100% | residual activity [17] 92% | residual activity [18] 100% | residual activity [19] 90% | residual activity [20] 96% | residual activity [21] 100% | residual activity [22] 79% | residual activity [23] 90% | residual activity [24] 100% | residual activity [25] 68% | residual activity [26] 100% | residual activity [27] 100% | residual activity [28] 80% | residual activity [29] 72% | residual activity [30] 92% | residual activity [31] 100% | residual activity [32] 76% | residual activity [33] 57% | residual activity [34] 100% | residual activity [35] 80% | residual activity [36] 83% | residual activity [37] 91% | residual activity [38] 80% | residual activity [39] 84% | residual activity [40] 100% | residual activity [41] 87% | residual activity [42] 74% | residual activity [43] 100% | residual activity [44] 100% | residual activity [45] 100%
